Source: ChEMBL document CHEMBL3885861, “Open TG-GATES”

Organism: Rattus norvegicus
Test: Open TG-GATES - Regimen: Single
Format: toxicity, organism-based, Sprague-Dawley
Design: regimen Single, gender Male, age 6 weeks
Conditions: in vivo, po, 300 mg/kg, route gavage, dose level Middle; for APTT / Bas / Eos / Fbg / Hb / Ht / Lym / MCH / MCHC / MCV / Mono / Neu / PT / Plat / RBC / Ret / WBC: tissue Blood; for KIDNEY_L / KIDNEY_R / KIDNEY_TOTAL: tissue Kidney; for LIVER: tissue Liver; for A/G / ALP / ALT / AST / BUN / CRE / Ca / Cl / DBIL / GLC / IP / K / LDH / Na / PL / RALB / TBIL / TC / TG / TP / gamma-GTP: tissue Plasma

O=C(O)c1cc(/N=N/c2ccc(S(=O)(=O)Nc3ccccn3)cc2)ccc1O [SULFASALAZINE]
TERMINAL_BW (3 h): 212.5 g | APTT (3 h): 18.5 s | Bas (3 h): 0% | Eos (3 h): 1% | Fbg (3 h): 215.2 mg/dL | Hb (3 h): 13.1 g/dL | Ht (3 h): 38.5% | Lym (3 h): 79% | MCH (3 h): 21.3 pg | MCHC (3 h): 34% | MCV (3 h): 62.6 fL | Mono (3 h): 2.6% | Neu (3 h): 16.2% | PT (3 h): 12.9 s | Plat (3 h): 115.5 x10_4/uL | RBC (3 h): 615.6 x10_4/ul | Ret (3 h): 6.7% | WBC (3 h): 93.5 x10_2/uL | KIDNEY_L (3 h): 1 g | KIDNEY_R (3 h): 0.9 g | KIDNEY_TOTAL (3 h): 1.9 g | LIVER (3 h): 9.7 g | A/G (3 h): 1.6 | ALP (3 h): 897.6 IU/L | ALT (3 h): 36.6 IU/L | AST (3 h): 61.4 IU/L | BUN (3 h): 10.8 mg/dL | CRE (3 h): 0.4 mg/dL | Ca (3 h): 10.4 mg/dL | Cl (3 h): 102.2 meq/L | DBIL (3 h): 0.064 mg/dL | GLC (3 h): 198.2 mg/dL | IP (3 h): 9.6 mg/dL | K (3 h): 3.7 meq/L | LDH (3 h): 147.2 IU/L | Na (3 h): 140.6 meq/L | PL (3 h): 140 mg/dL | RALB (3 h): 3.3 g/dL | TBIL (3 h): 0.1 mg/dL | TC (3 h): 71.2 mg/dL | TG (3 h): 59.6 mg/dL | TP (3 h): 5.4 g/dL | gamma-GTP (3 h): 1 IU/L | TERMINAL_BW (6 h): 209.1 g | APTT (6 h): 18.9 s | Bas (6 h): 0% | Eos (6 h): 1% | Fbg (6 h): 230.2 mg/dL | Hb (6 h): 13.2 g/dL | Ht (6 h): 39% | Lym (6 h): 76.2% | MCH (6 h): 21.4 pg | MCHC (6 h): 34% | MCV (6 h): 63.1 fL | Mono (6 h): 3% | Neu (6 h): 19% | PT (6 h): 12.6 s | Plat (6 h): 115.4 x10_4/uL | RBC (6 h): 618.8 x10_4/ul | Ret (6 h): 7.4% | WBC (6 h): 81.1 x10_2/uL | KIDNEY_L (6 h): 1 g | KIDNEY_R (6 h): 0.9 g | KIDNEY_TOTAL (6 h): 1.9 g | LIVER (6 h): 9.8 g | A/G (6 h): 1.5 | ALP (6 h): 961.6 IU/L | ALT (6 h): 33.8 IU/L | AST (6 h): 68.8 IU/L | BUN (6 h): 11.4 mg/dL | CRE (6 h): 0.4 mg/dL | Ca (6 h): 10.8 mg/dL | Cl (6 h): 102.2 meq/L | DBIL (6 h): 0.072 mg/dL | GLC (6 h): 190 mg/dL | IP (6 h): 9.5 mg/dL | K (6 h): 4 meq/L | LDH (6 h): 191.4 IU/L | Na (6 h): 140.8 meq/L | PL (6 h): 164.4 mg/dL | RALB (6 h): 3.4 g/dL | TBIL (6 h): 0.1 mg/dL | TC (6 h): 88.6 mg/dL | TG (6 h): 79.8 mg/dL | TP (6 h): 5.7 g/dL | gamma-GTP (6 h): 1 IU/L | TERMINAL_BW (9 h): 206.7 g | APTT (9 h): 19.2 s | Bas (9 h): 0% | Eos (9 h): 1% | Fbg (9 h): 233.2 mg/dL | Hb (9 h): 13 g/dL | Ht (9 h): 38.1% | Lym (9 h): 72.8% | MCH (9 h): 21.6 pg | MCHC (9 h): 34.1% | MCV (9 h): 63.2 fL | Mono (9 h): 2.6% | Neu (9 h): 22.6% | PT (9 h): 12.7 s | Plat (9 h): 118.9 x10_4/uL | RBC (9 h): 603 x10_4/ul | Ret (9 h): 7.5% | WBC (9 h): 81.5 x10_2/uL | KIDNEY_L (9 h): 0.9 g | KIDNEY_R (9 h): 0.9 g | KIDNEY_TOTAL (9 h): 1.8 g | LIVER (9 h): 8.6 g | A/G (9 h): 1.5 | ALP (9 h): 961.6 IU/L | ALT (9 h): 32.4 IU/L | AST (9 h): 65.2 IU/L | BUN (9 h): 8.8 mg/dL | CRE (9 h): 0.3 mg/dL | Ca (9 h): 10.5 mg/dL | Cl (9 h): 103.2 meq/L | DBIL (9 h): 0.064 mg/dL | GLC (9 h): 198.6 mg/dL | IP (9 h): 9.3 mg/dL | K (9 h): 3.5 meq/L | LDH (9 h): 183 IU/L | Na (9 h): 140.8 meq/L | PL (9 h): 149.2 mg/dL | RALB (9 h): 3.3 g/dL | TBIL (9 h): 0.1 mg/dL | TC (9 h): 83.2 mg/dL | TG (9 h): 44.2 mg/dL | TP (9 h): 5.5 g/dL | gamma-GTP (9 h): 1.2 IU/L | TERMINAL_BW (24 h): 224.2 g | APTT (24 h): 17.4 s | Bas (24 h): 0% | Eos (24 h): 0.8% | Fbg (24 h): 233 mg/dL | Hb (24 h): 12.8 g/dL | Ht (24 h): 37.6% | Lym (24 h): 75% | MCH (24 h): 21.2 pg | MCHC (24 h): 34.2% | MCV (24 h): 62.1 fL | Mono (24 h): 2.6% | Neu (24 h): 19.8% | PT (24 h): 12.4 s | Plat (24 h): 122 x10_4/uL | RBC (24 h): 605.8 x10_4/ul | Ret (24 h): 6.5% | WBC (24 h): 104.1 x10_2/uL | KIDNEY_L (24 h): 1 g | KIDNEY_R (24 h): 1 g | KIDNEY_TOTAL (24 h): 1.9 g | LIVER (24 h): 10.6 g | A/G (24 h): 1.4 | ALP (24 h): 992.4 IU/L | ALT (24 h): 40 IU/L | AST (24 h): 62.8 IU/L | BUN (24 h): 13.8 mg/dL | CRE (24 h): 0.4 mg/dL | Ca (24 h): 10.9 mg/dL | Cl (24 h): 101.8 meq/L | DBIL (24 h): 0.088 mg/dL | GLC (24 h): 187.2 mg/dL | IP (24 h): 7.2 mg/dL | K (24 h): 3.9 meq/L | LDH (24 h): 224 IU/L | Na (24 h): 140.6 meq/L | PL (24 h): 163.6 mg/dL | RALB (24 h): 3.3 g/dL | TBIL (24 h): 0.1 mg/dL | TC (24 h): 86.8 mg/dL | TG (24 h): 85.6 mg/dL | TP (24 h): 5.6 g/dL | gamma-GTP (24 h): 1.2 IU/L
